Measured values taken from paper PMC4364612.
Like-named read-outs stand apart in the source and are kept apart here. Ends that are not written are not given here. Peptide text beside a SMILES is read from it. * marks the point of attachment. Cbz = O=C(OCc1ccccc1)*

How the values were obtained:
[1] = system: immature Møs presenting to epitope-specific CTL clones; assay: ELISPOT cross-presentation assay with immature Møs; type: cell-based, Human; settings: IFN-gamma ELISPOT, n≥5 donors; for change of B57-ISW9 cross-presentation upon inhibitor pretreatment: immature Møs pre-incubated 45 minutes with 10μM MG132 or 5μM E64 before p24 protein; for change of B57-KF11 CTL responses upon inhibitor pretreatment, decrease / change of B57-TW10 CTL responses upon inhibitor pretreatment, decrease: immature Møs pre-incubated with 10μM MG132, epoxomicin or 5μM E64 before p24 protein
Protocol: (§1) Human peripheral blood mononuclear cells (PBMCs) were isolated by Ficoll-Hypaque (Sigma-Aldrich) density centrifugation. Monocytes were enriched using CD14+ magnetic isolation kits (StemCell) and differentiated into DCs and Møs during a 6-day culture. DCs were cultured in AIM-V media with 1% human serum AB (Gemini Bio-Products) supplemented with 20ng/mL IL-4 and 10ng/mL GM-CSF (CellGenix). On days 2 and 4, fresh IL-4 and GM-CSF were added. Møs were cultured in ultra low attachment plates (Corning) in AIM-V media with 10% human serum AB. Where indicated, maturation of DCs and Møs was induced by TLR ligand stimulation with 2μg/mL LPS, 1μg/mL CL097, or 1μg/mL R848 (Invivogen) for 2 days. Epitope-specific CTL clones were maintained in the presence of 50U/mL IL-2, using 0.1μg/mL CD3-specific mAb 12F6, and irradiated feeder cells as stimulus for T cell proliferation.
(§2) Immature DCs and Møs were exposed to recombinant HIV-1 p24-protein, HIV-1 p55-protein or control protein (Protein Sciences Corporation, USA) for 1hr at 37°C. Where indicated, cells were pre-incubated for 45 minutes with inhibitors for proteasome (10μM MG132 (Enzo Life Sciences)) or cysteine proteases (5μM E64 (Sigma-Aldrich)). Cells pulsed with equivalent molar concentrations of the optimal epitopes were used as controls for antigen presentation and CTL clone specificity. DCs and Møs were thoroughly washed and cultured overnight with epitope-specific CTL clones at a 2:1 effector-to-target ratio in 96-well plates (Millipore) coated with anti-IFN-y mAb 1-D1K (Mabtech). ELISPOT plates were washed and developed as described previously.

[2] = system: immature DCs presenting to epitope-specific CTL clones; assay: ELISPOT cross-presentation assay with immature DCs; type: cell-based, Human; settings: IFN-gamma ELISPOT, n≥5 donors; for change of B57-KF11 cross-presentation (CTL response) upon inhibitor pretreatment, increase: immature DCs pre-incubated 45 minutes with 10μM MG132, 5μM E64 or epoxomicin before p24 protein; for change of B57-ISW9 cross-presentation (CTL response) upon inhibitor pretreatment, increase: immature DCs pre-incubated 45 minutes with 10μM MG132 or 5μM E64 before p24 protein
Protocol: as §1, §2

[3] = Intracellular stability of optimal epitopes, DC and Mø extracts; type: in vitro ADME, Human; settings: 37°C
Protocol: One nmol of highly purified peptide was degraded in 15μg of whole cell extracts at 37°C in degradation buffer at pH7.4 or pH4.0 [37]. Aliquots were taken at 0, 10, 30, and 60 minutes, and the reaction was stopped with 2.5μL of 100% TFA. The remaining peptide at each time point was quantified by reversed-phase HPLC (RP-HPLC; Waters). 100% represents the amount of peptide detected at time point 0 calculated as the area under the peptide peak. A stability rate of each peptide was calculated by a nonlinear regression (one-phase exponential decay) of the degradation profile obtained over a 60-minute incubation [35, 44]. Peptides incubated in buffer without cell extracts were used as controls.

[4] = In vitro peptide degradation assay with mass spectrometry, immature DC extracts; type: in vitro ADME, Human; settings: immature DC whole cell extracts, 120 minutes, pH7.4, pH5.5 and pH4.0, 37°C; LC-MS cleavage patterns; representative of two experiments
[5] = Intracellular stability of optimal epitopes, immature DC extracts; type: in vitro ADME, Human; settings: RP-HPLC; for stability rate at pH4.0 relative to pH7.4: immature DC extract, pH4.0, 37°C, 60-minute incubation, three independent experiments; for half-life: human, cells or culture medium, 1nmol peptide, 15μg immature DC whole cell extract, aliquots 0, 10, 30, 60 minutes, one-phase exponential decay
Protocol: The proteolytic activities of cathepsin S (cell, 50μM; extracts, 10μM Z-VVR-AMC), omni cathepsins (cell, 50μM; extracts, 50μM Z-FR-AMC), cathepsin D&E (extracts, 10μM Mca-[…]-Dnp, Enzo Life Sciences), and cathepsin B (extracts, 50μM Z-RR-AMC, Bachem) were measured by cleavage of peptide-specific fluorogenic substrates. […] For cell extracts, equivalent amounts as determined by total protein concentration were used in reaction buffer (50mM sodium chloride, 50mM potassium phosphate, 2mM DTT, 2mM EDTA; pH 7.4, pH5.5 or pH4.0, respectively). The rate of fluorescence emission, which is proportional to the proteolytic activity, was measured every 5 minutes at 37°C in a Victor-3 Plate Reader (Perkin Elmer).
One nmol of highly purified peptide was degraded in 15μg of whole cell extracts at 37°C in degradation buffer at pH7.4 or pH4.0 [37]. Aliquots were taken at 0, 10, 30, and 60 minutes, and the reaction was stopped with 2.5μL of 100% TFA. The remaining peptide at each time point was quantified by reversed-phase HPLC (RP-HPLC; Waters). 100% represents the amount of peptide detected at time point 0 calculated as the area under the peptide peak. A stability rate of each peptide was calculated by a nonlinear regression (one-phase exponential decay) of the degradation profile obtained over a 60-minute incubation. Peptides incubated in buffer without cell extracts were used as controls.

Row | Molecule | change of B57-KF11 CTL responses upon inhibitor pretreatment, decrease [1] | change of B57-TW10 CTL responses upon inhibitor pretreatment, decrease [1] | change of B57-KF11 cross-presentation (CTL response) upon inhibitor pretreatment, increase [2] | stability rate at pH4.0 relative to pH7.4 [5] | further results
1 | CC(C)C[C@H](NC(=O)[C@H]1O[C@@H]1C(=O)O)C(=O)NCCCCN=C(N)N [E64] | did not affect | did not affect | no effect |  | change of B57-ISW9 cross-presentation upon inhibitor pretreatment [1]: did not affect; change of B57-ISW9 cross-presentation (CTL response) upon inhibitor pretreatment, increase [2]: no effect
2 | CC[C@H](C)[C@H](NC(=O)[C@H](CCC(N)=O)NC(=O)[C@H](CCC(=O)O)NC(=O)[C@H](CCC(N)=O)NC(=O)[C@H](CC(C)C)NC(=O)[C@H](CC(N)=O)NC(=O)[C@H](CO)NC(=O)[C@@H](N)[C@@H](C)O)C(=O)N[C@@H](C)C(=O)N[C@@H](Cc1c[nH]c2ccccc12)C(=O)O |  |  |  |  | cytosolic and lysosomal stability relative to B57-TW10, fold reduced ([3]; 1nmol peptide, 15μg immature DC or Mø extracts, pH7.4 and pH4.0 (both compartments), RP-HPLC stability rate, mean of three independent experiments): 7- to 8 fold
3 | CC[C@H](C)[C@H](NC(=O)[C@H](CCCCN)NC(=O)[C@H](CCC(=O)O)NC(=O)[C@H](Cc1c[nH]c2ccccc12)NC(=O)[C@@H](N)CCCNC(=N)N)C(=O)N[C@@H](CCCNC(=N)N)C(=O)N[C@@H](CC(C)C)C(=O)N[C@@H](CCCNC(=N)N)C(=O)N1CCC[C@H]1C(=O)NCC(=O)NCC(=O)N[C@@H](CCCCN)C(=O)N[C@@H](CCCCN)C(=O)N[C@@H](CCCCN)C(=O)N[C@@H](Cc1ccc(O)cc1)C(=O)N[C@@H](CCCCN)C(=O)N[C@@H](CC(C)C)C(=O)O [HIV-1 p17-derived peptide] |  |  |  |  | degradation of A03-RK9 within the p17-derived peptide [4]: minimal degradation
4 | CC[C@H](C)[C@H](NC(=O)[C@H](C)N)C(=O)N[C@@H](Cc1ccccc1)C(=O)N[C@@H](CCC(N)=O)C(=O)N[C@@H](CO)C(=O)N[C@@H](CO)C(=O)N[C@@H](CCSC)C(=O)N[C@H](C(=O)N[C@@H](CCCCN)C(=O)O)[C@@H](C)O [A11-ATK9] |  |  |  | dramatically reduced | 
5 | ISPRTLNAW [B57-ISW9] |  |  |  | dramatically reduced | 
6 | CC(C)C[C@@H](C=O)NC(=O)[C@H](CC(C)C)NC(=O)[C@H](CC(C)C)NC(=O)OCc1ccccc1 [MG132] (Cbz-Leu-Leu-Leu-aldehyde) | 2 fold | 3 fold | 4 fold |  | change of B57-ISW9 cross-presentation upon inhibitor pretreatment [1]: not affected; change of B57-TW10-specific CTL responses upon inhibitor pretreatment, decrease ([2]; immature DCs pre-incubated 45 minutes with 10μM MG132 before p24 protein): approximately 3 fold; change of B57-ISW9 cross-presentation (CTL response) upon inhibitor pretreatment, increase [2]: 43 fold
7 | FSPEVIPMF [B57-FF9] |  |  |  | dramatically reduced | stability rate compared with overlapping epitope B57-KF11 ([3]; extracts of DCs and Møs, RP-HPLC, three independent experiments): comparable
8 | CC[C@H](C)[C@H](NC(=O)[C@H]([C@@H](C)CC)N(C)C(C)=O)C(=O)N[C@H](C(=O)N[C@@H](CC(C)C)C(=O)[C@@]1(C)CO1)[C@@H](C)O [epoxomicin] | 2 fold | 3 fold | 11 fold |  | 
9 | CC[C@H](C)[C@H](NC(=O)[C@@H](NC(=O)[C@H](CCC(=O)O)NC(=O)[C@@H]1CCCN1C(=O)[C@H](CO)NC(=O)[C@H](Cc1ccccc1)NC(=O)[C@H](C)NC(=O)[C@@H](N)CCCCN)C(C)C)C(=O)N1CCC[C@H]1C(=O)N[C@@H](CCSC)C(=O)N[C@@H](Cc1ccccc1)C(=O)O [B57-KF11] |  |  |  | dramatically reduced | half-life ([5]; pH 4, degradation buffer pH4.0, 37°C, read-out: half-life at pH4.0): 1.9 min; half-life ([5]; pH 7.4, degradation buffer pH7.4, 37°C, read-out: half-life at pH7.4): 20 min; fold faster degraded at pH4.0 than at pH7.4 ([5]; immature DC whole cell extract, 37°C, ratio of half-lives): 10 fold
